Source: ChEMBL document CHEMBL1909046, “DrugMatrix in vitro pharmacology data”

Tests used:
[1] = molecular target: T1, C-X-C chemokine receptor type 2 (Homo sapiens, UniProt P25025); format: cell membranes, Membrane; settings: cho-k1; also: in other assays of this panel Not Active means under 50% inhibition at 10 µM
T1 sequence (P25025 whole entry): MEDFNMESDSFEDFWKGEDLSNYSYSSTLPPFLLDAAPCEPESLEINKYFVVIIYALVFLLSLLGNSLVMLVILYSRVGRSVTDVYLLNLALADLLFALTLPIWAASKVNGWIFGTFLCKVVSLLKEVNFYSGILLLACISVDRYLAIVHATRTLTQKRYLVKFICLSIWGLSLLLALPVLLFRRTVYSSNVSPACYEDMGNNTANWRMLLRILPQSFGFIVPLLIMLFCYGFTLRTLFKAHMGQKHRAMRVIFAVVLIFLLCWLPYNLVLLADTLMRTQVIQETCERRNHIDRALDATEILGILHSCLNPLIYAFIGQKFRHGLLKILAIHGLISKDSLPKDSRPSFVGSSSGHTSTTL

[2] = molecular target: T2, D(4) dopamine receptor (Homo sapiens, UniProt P21917); assay: DRUGMATRIX: Dopamine D4.2 radioligand binding (ligand: [3H] Spiperone); format: cell membranes, CHO-K1, Membrane; settings: cho-k1; Not Active = under 50% inhibition at 10 µM
T2 sequence (P21917 whole entry): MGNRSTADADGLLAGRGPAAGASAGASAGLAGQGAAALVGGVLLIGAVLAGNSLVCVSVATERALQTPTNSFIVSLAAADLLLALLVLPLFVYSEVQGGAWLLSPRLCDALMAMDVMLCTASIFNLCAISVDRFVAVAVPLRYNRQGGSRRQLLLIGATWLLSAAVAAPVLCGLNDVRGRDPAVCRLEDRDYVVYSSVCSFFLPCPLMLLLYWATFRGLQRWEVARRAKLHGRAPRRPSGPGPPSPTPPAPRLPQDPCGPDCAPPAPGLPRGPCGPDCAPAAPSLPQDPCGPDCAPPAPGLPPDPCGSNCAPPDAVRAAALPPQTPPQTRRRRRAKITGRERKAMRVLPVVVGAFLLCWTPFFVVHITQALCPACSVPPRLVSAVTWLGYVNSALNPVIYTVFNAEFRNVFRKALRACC

[3] = DRUGMATRIX: beta-Lactamase enzyme inhibition (substrate: Nitrocefin); set-up: species or system Bacillus cereus; settings: Not Active = under 50% inhibition at 10 µM
[4] = molecular target: Estrogen receptor beta (Homo sapiens, UniProt Q92731); settings: sf9; also: in other assays of this panel Not Active means under 50% inhibition at 10 µM
[5] = molecular target: Protein phosphatase 3 catalytic subunit alpha (Homo sapiens, UniProt Q08209); set-up: species or system Escherichia coli;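 also: inhibition of calcineurin (PP2B) enzyme activity, measured with DiFMUP as the substrate; in other assays of this panel Not Active means under 50% inhibition at 10 µM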
[6] = DRUGMATRIX: Sodium/nucleoside co-transporter radioligand binding (ligand: nitrobenzylthioinosine); format: cell membranes, Cavia porcellus, Dunkin-Hartley, Cerebral cortex, Membrane; settings: Not Active = under 50% inhibition at 10 µM
[7] = DRUGMATRIX: GABAA, Muscimol, Central radioligand binding (ligand: [3H] Muscimol); format: cell membranes, Rattus norvegicus, Wistar, Brain, Membrane; settings: Not Active = under 50% inhibition at 10 µM
[8] = molecular target: Cytochrome P450 2C19 (Homo sapiens, UniProt P33261); settings: bti-tn-5b1-4; also: in other assays of this panel Not Active means under 50% inhibition at 10 µM
[9] = molecular target: T3, Angiotensin-converting enzyme (Oryctolagus cuniculus, UniProt P12822); format: tissue-based, Lung
T3 sequence (P12822 whole entry): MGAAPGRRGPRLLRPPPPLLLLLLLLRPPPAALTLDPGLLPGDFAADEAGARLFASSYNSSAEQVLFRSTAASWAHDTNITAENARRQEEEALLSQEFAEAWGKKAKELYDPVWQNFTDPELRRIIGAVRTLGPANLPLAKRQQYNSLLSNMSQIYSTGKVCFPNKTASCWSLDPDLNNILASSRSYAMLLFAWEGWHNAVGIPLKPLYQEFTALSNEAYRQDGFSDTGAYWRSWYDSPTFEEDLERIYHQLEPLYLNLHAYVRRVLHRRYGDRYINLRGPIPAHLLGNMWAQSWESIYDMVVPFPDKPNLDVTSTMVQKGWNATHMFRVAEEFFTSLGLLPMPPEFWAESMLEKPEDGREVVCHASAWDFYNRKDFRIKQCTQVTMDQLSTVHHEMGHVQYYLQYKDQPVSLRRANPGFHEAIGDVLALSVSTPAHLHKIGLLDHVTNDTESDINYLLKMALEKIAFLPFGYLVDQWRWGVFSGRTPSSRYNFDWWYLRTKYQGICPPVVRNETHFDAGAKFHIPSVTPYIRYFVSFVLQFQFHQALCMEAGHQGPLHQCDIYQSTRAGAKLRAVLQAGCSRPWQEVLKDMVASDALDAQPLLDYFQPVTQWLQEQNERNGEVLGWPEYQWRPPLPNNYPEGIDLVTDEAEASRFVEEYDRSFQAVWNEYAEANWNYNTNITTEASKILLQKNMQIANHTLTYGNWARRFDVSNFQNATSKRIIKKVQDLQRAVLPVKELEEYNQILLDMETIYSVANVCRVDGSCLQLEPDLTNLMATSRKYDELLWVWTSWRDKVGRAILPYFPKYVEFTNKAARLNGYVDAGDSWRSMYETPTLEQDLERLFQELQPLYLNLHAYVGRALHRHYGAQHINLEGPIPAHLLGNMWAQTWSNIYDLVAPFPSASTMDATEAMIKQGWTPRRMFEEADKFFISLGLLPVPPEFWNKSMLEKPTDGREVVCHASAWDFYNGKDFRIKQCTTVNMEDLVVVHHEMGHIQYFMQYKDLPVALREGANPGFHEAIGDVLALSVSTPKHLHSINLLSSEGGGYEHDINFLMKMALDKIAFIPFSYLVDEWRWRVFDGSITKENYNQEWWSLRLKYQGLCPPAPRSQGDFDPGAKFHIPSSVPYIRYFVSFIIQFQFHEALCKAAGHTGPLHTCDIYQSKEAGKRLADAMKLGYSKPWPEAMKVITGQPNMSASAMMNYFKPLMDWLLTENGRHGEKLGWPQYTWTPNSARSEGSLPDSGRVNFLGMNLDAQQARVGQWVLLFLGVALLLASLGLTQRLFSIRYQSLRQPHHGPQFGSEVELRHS

Estrogen receptor beta, sequence (Q92731 whole entry): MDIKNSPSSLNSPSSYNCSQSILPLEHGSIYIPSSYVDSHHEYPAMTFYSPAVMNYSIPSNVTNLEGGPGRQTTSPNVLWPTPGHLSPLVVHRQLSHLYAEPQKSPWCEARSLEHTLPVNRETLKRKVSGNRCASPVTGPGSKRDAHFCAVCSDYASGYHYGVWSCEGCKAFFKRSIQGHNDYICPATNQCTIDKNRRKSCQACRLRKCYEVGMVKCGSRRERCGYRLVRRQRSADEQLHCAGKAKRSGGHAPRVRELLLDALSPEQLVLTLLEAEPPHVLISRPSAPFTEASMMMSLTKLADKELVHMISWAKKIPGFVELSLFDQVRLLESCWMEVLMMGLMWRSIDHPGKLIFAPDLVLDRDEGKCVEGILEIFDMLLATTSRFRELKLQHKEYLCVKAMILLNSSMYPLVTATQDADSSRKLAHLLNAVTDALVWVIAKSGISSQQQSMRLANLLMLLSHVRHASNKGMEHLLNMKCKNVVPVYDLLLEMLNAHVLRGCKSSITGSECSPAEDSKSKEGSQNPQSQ
Cytochrome P450 2C19, sequence (P33261 whole entry): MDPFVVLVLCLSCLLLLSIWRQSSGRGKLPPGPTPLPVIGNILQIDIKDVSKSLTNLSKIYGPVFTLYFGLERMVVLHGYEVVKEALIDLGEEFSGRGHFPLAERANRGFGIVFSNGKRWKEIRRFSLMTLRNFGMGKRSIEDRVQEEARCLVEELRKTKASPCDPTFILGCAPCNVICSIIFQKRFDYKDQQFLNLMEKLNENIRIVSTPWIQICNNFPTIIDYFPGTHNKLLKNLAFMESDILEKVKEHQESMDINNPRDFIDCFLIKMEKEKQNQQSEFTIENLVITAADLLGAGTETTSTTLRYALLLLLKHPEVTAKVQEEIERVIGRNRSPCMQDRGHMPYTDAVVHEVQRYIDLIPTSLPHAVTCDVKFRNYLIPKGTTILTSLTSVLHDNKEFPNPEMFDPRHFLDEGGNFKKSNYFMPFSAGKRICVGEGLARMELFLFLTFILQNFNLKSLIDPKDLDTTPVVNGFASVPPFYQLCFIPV

CCC(C)n1ncn(-c2ccc(N3CCN(c4ccc(OCC5COC(Cn6cncn6)(c6ccc(Cl)cc6Cl)O5)cc4)CC3)cc2)c1=O (stereo not drawn) [ITRACONAZOLE]
Not Active: IC50 [1] | IC50 [2] | IC50 [3] | Ki [3] | IC50 [4] | IC50 [5] | IC50 [6] | Ki [6] | IC50 [7] | Ki [7] | IC50 [8] | Ki [8] | IC50 [9]

CCCCN1CCCC[C@H]1C(=O)Nc1c(C)cccc1C [LEVOBUPIVACAINE]
Not Active: IC50 [1] | IC50 [2] | IC50 [3] | Ki [3] | IC50 [4] | IC50 [5] | IC50 [6] | Ki [6] | IC50 [7] | Ki [7] | IC50 [8] | Ki [8] | IC50 [9]

CCCCc1nc(Cl)c(CO)n1Cc1ccc(-c2ccccc2-c2nnn[nH]2)cc1 [LOSARTAN]
Not Active: IC50 [1] | IC50 [2] | IC50 [3] | Ki [3] | IC50 [4] | IC50 [5] | IC50 [6] | Ki [6] | IC50 [7] | Ki [7] | IC50 [8] | Ki [8] | IC50 [9]

Sc1ncnc2nc[nH]c12 [MERCAPTOPURINE ANHYDROUS]
Not Active: IC50 [1] | IC50 [2] | IC50 [3] | Ki [3] | IC50 [4] | IC50 [5] | IC50 [6] | Ki [6] | IC50 [7] | Ki [7] | IC50 [8] | Ki [8] | IC50 [9]

Cc1ccccc1N1C(=O)c2cc(S(N)(=O)=O)c(Cl)cc2NC1C (stereo not drawn) [METOLAZONE]
Not Active: IC50 [1] | IC50 [2] | IC50 [3] | Ki [3] | IC50 [4] | IC50 [5] | IC50 [6] | Ki [6] | IC50 [7] | Ki [7] | IC50 [8] | Ki [8] | IC50 [9]

NC1=NC(=O)C(c2ccccc2)O1 (stereo not drawn) [PEMOLINE]
Not Active: IC50 [1] | IC50 [2] | IC50 [3] | Ki [3] | IC50 [4] | IC50 [5] | IC50 [6] | Ki [6] | IC50 [7] | Ki [7] | IC50 [8] | Ki [8] | IC50 [9]

Nc1nc2c(ncn2CCC(CO)CO)c(=O)[nH]1 [PENCICLOVIR]
Not Active: IC50 [1] | IC50 [2] | IC50 [3] | Ki [3] | IC50 [4] | IC50 [5] | IC50 [6] | Ki [6] | IC50 [7] | Ki [7] | IC50 [8] | Ki [8] | IC50 [9]

C=C(C)C1(O)OC(=O)C=C1OC (stereo not drawn) [PENICILLIC ACID]
Not Active: IC50 [1] | IC50 [2] | IC50 [3] | Ki [3] | IC50 [4] | IC50 [5] | IC50 [6] | Ki [6] | IC50 [7] | Ki [7] | IC50 [8] | Ki [8] | IC50 [9]

CCCN1C[C@H](CSC)C[C@@H]2c3cccc4[nH]cc(c34)C[C@H]21 [PERGOLIDE]
Not Active: IC50 [1] | IC50 [2] | IC50 [3] | Ki [3] | IC50 [4] | IC50 [5] | IC50 [6] | Ki [6] | IC50 [7] | Ki [7] | IC50 [8] | Ki [8] | IC50 [9]

C1CCC(C(CC2CCCCN2)C2CCCCC2)CC1 (stereo not drawn) [PERHEXILINE]
Not Active: IC50 [1] | IC50 [2] | IC50 [3] | Ki [3] | IC50 [4] | IC50 [5] | IC50 [6] | Ki [6] | IC50 [7] | Ki [7] | IC50 [8] | Ki [8] | IC50 [9]

Cc1ccc(N(CC2=NCCN2)c2cccc(O)c2)cc1 [PHENTOLAMINE]
Not Active: IC50 [1] | IC50 [2] | IC50 [3] | Ki [3] | IC50 [4] | IC50 [5] | IC50 [6] | Ki [6] | IC50 [7] | Ki [7] | IC50 [8] | Ki [8] | IC50 [9]
